Measured values: paper PMC7687371, “Quantitative in Vitro to in Vivo Extrapolation (QIVIVE) for Predicting Reduced Anogenital Distance Produced by Anti-Androgenic Pesticides in a Rodent Model for Male Reproductive Disorders” (Environmental Health Perspectives, 2020)
Marks after values point to notes of the source that are not given here.

Tests used:
[1] = ref Wetmore et al. (2012); cited from earlier work
[2] = set-up: method as in U.S. EPA 2012; settings: EPI Suite, experimental preferred over modeled; ref U.S. EPA 2012; cited from earlier work
[3] = set-up: method as in EFSA 2009; settings: 24 h after dosing; ref EFSA 2009; cited from earlier work
NCI-H295R cells = assay: H295R steroidogenesis assay; format: cell-based, human
Protocol: To capture effects on steroid hormone synthesis (testosterone and androstendione), we tested all 12 pesticides in the H295R assay with the human adrenocortical carcinoma cell line NCI-H295R (American Type Culture Collection no. CRL-2,128, LGC Standards), as previously described ([Hecker et al. 2011]; [Rosenmai et al. 2013]). In brief, cells were cultured in DMEM/F-12 +glutamine medium with HEPES buffer (Invitrogen) containing 1% insulin-transferrin-sodium selenite plus Premix (VWR) and 2.5% Nu-Serum (BD Bioscience) at 37°C in a 5% CO2 atmosphere. The day before exposure, cells were seeded 300,000 per well in clear 24-well plates (VWR Corning). Cells were exposed for 48 h to control (Forskolin: 1μM , 10μM (Sigma-Aldrich); and Prochloraz: 0.3μM , 3μM (VWR-Bie and Berntsen) or test compounds. The vehicle (DMSO) concentration was kept constant in all wells (0.1%). After 48 h, the exposure culture medium was removed and stored at –80°C until the levels of 10 steroid hormones (testosterone, androstenedione, aldosterone, corticosterone, cortisol, dehydroepiandrosterone, 17α-hydroxyprogesterone , progesterone, estrone, and 17β-estradiol ) were quantified using the high-performance liquid chromatography–tandem mass spectrometry method described elsewhere ([Mortensen and Pedersen 2007]). Minor modifications were made to accommodate a smaller sample size and to include more hormones. The liquid chromatography system (Agilent 1100) was equipped with an Atlantis C18 column ( 2.1×150mm , 3μm ) (Waters Corp.) maintained at 40°C. The sample injection volume was 50μL . […] The mass spectrometer was a Quattro Ultima triple quadrupole instrument (Waters Corp.). […] Each pesticide was tested in 2-fold serial dilutions at concentrations between 0.8 and 50μM in three independent experiments, and hormone levels were normalized to the solvent controls containing 0.1% DMSO. Cell viability was evaluated by using the 3-(4,5-dimethylthiazol-2-yl)-2,5- diphenyltetrazolium bromide (MTT) assay (Sigma) as previously described ([Hecker et al. 2011]; [Rosenmai et al. 2013]). Fluorescence was measured (excitation 560 nm , emission 590 nm ) using a Wallac Victor2 1420 multilabel counter (PerkinElmer).

[4] = PBK model first-order kinetic parameters fitted to in vivo ADME data; set-up: species or system rat; settings: PBK model parameter
pregnant dams and pups = settings: ref EFSA's Draft Assessment Reports (DARs); cited from earlier work

Structure (SMILES): C=CCOC(Cn1ccnc1)c1ccc(Cl)cc1Cl (stereo not shown) [Imazalil, imazalil]
- Unbound plasma fraction (%) [1]: 4.8^g %
- log Kow [2]: 3.82
- Number of metabolites discovered in urine and feces [3]: at least 25
- Effect on androgen (steroid) synthesis, in words (NCI-H295R cells; H295R steroidogenesis assay): inhibited testosterone synthesis
- IC20 (NCI-H295R cells; Homo sapiens, NCI-H295R, read-out: Testosterone inhibition (IC20 µM)): 500 nM
- Androstendione, LOEC (NCI-H295R cells; multiple contrast tests): 0.8 µM
- Corticosterone, LOEC (NCI-H295R cells; multiple contrast tests): 0.8 µM
- Cortisol, LOEC (NCI-H295R cells; multiple contrast tests): 0.8 µM
- DHEA, LOEC (NCI-H295R cells; multiple contrast tests): 0.8 µM
- Estradiol, LOEC (NCI-H295R cells; multiple contrast tests): 0.8 µM
- OH-Progesterone, LOEC (NCI-H295R cells; multiple contrast tests): 0.8 µM
- Progesterone, LOEC (NCI-H295R cells; multiple contrast tests): 0.8 µM
- Testosterone, lowest observed effect concentration (LOEC) (NCI-H295R cells; multiple contrast tests): 0.8 µM
- Fecal excretion rate from gut (L/h) KFeces [4]: 0.5 L/h
- Portal GI absorption rate into liver (L/h) KAS [4]: 1 L/h
- Urine excretion rate from kidney (L/h) KUrine [4]: 0.53 L/h
- Critical toxicity (pregnant dams and pups): Increased duration of gestation , effects on pups/fetuses related to maternal toxicity
- LOAEL (mg/kg bw) (pregnant dams and pups): 80 mg/kg bw
- NOAEL (mg/kg bw) (pregnant dams and pups): 20 mg/kg bw
